How the values were obtained:
Aurora kinase A = molecular target: T1, Aurora kinase A (Homo sapiens, UniProt O14965); test: Inhibition of human Aurora A using H-LRRASLG as substrate after 2 hrs by HotSpot assay in presence of 33P-ATP and 10 uM ATP
T1 sequence (O14965 whole entry): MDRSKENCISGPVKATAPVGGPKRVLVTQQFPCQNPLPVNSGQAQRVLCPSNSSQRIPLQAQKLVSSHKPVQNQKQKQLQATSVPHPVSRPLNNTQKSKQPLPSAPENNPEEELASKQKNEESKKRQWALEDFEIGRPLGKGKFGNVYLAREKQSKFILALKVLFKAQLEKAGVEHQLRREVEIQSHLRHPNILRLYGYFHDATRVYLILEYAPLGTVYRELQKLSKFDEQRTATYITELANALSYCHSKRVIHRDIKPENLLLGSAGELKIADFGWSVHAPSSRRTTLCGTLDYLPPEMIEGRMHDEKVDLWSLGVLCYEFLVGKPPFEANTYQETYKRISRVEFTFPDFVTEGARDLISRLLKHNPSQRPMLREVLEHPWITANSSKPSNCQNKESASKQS

Aurora kinase B = Aurora kinase B (Homo sapiens, UniProt Q96GD4); test: Inhibition of human Aurora B using H-LRRASLG as substrate after 2 hrs by HotSpot assay in presence of 33P-ATP and 10 uM ATP
Aurora kinase B, sequence (Q96GD4 whole entry): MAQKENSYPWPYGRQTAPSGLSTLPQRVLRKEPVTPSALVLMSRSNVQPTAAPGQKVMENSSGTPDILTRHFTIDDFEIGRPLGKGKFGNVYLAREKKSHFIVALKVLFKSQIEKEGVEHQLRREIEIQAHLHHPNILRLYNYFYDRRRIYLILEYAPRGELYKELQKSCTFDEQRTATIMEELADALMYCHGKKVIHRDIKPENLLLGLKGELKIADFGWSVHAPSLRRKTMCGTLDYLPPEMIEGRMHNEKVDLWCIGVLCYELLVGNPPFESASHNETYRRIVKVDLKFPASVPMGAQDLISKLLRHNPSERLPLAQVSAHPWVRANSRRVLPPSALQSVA

SMILES | IC50 (Aurora kinase A) | IC50 (Aurora kinase B)
COC(=O)c1cccc(NC(=O)c2cc(-n3cc(-c4cc(OC)cc(OC)c4)nn3)ccc2O)c1 | 0.768 µM | 5.94 µM
COC(=O)c1cccc(NC(=O)c2cc(-n3cc(CNc4ccccc4)nn3)ccc2O)c1 | 5.15 µM | 36.5 µM
COC(=O)c1cccc(NC(=O)c2cc(-n3cc(CNc4cc(C)[nH]n4)nn3)ccc2O)c1 | 13.7 µM | 49.5 µM
COC(=O)c1cccc(NC(=O)c2cc(-n3cc(CNc4nc5ccccc5o4)nn3)ccc2O)c1 | 3.52 µM | 10.2 µM
COC(=O)c1cccc(NC(=O)c2cc(-n3cc(CCNc4ncnc5ccsc45)nn3)ccc2O)c1 | 2.97 µM | 0.364 µM
COC(=O)c1cccc(NC(=O)c2cc(-n3cc(CNc4cc(C)ccn4)nn3)ccc2O)c1 | 6.07 µM | 16.3 µM
COC(=O)c1cccc(NC(=O)c2cc(-n3cc(CCNc4ncccn4)nn3)ccc2O)c1 | 7.67 µM | 15.2 µM
COC(=O)c1cccc(NC(=O)c2cc(-n3cc(CNc4ccccn4)nn3)ccc2O)c1 | 6.43 µM | 32.1 µM
COC(=O)c1cccc(NC(=O)c2cc(-n3cc(-c4ccc5c(c4)OCO5)nn3)ccc2O)c1 | 0.638 µM | 2.19 µM
COC(=O)c1cccc(NC(=O)c2cc(-n3cc(-c4ccc5nccnc5c4)nn3)ccc2O)c1 | 0.607 µM | 7.3 µM
COC(=O)c1cccc(NC(=O)c2cc(-n3cc(CNc4ncnc5ccsc45)nn3)ccc2O)c1 | 0.801 µM | 20.1 µM
COC(=O)c1cccc(NC(=O)c2cc(-n3cc(CNc4ncccn4)nn3)ccc2O)c1 | 15.4 µM | 40.7 µM
COC(=O)c1cccc(NC(=O)c2cc(-n3cc(CNc4cc(C)on4)nn3)ccc2O)c1 | 12.4 µM | 54.8 µM
COC(=O)c1cccc(NC(=O)c2cc(-n3cc(-c4cccc([N+](=O)[O-])c4)nn3)ccc2O)c1 | 0.284 µM | 1.33 µM
